{
  "source": "paper PMC12605127",
  "about": "“Cyclopropane xenolipids resemble monounsaturated fatty acids and modulate peroxisome proliferator-activated receptors” (Journal of Lipid Research, 2025)",
  "key": {"human PPARα": {"biological_target": "T1, human PPARα (Homo sapiens, UniProt Q07869)", "T1 construct": "purchased ThermoFisher Scientific PV4684", "T1 sequence (Q07869 239-466 limits assumed)": "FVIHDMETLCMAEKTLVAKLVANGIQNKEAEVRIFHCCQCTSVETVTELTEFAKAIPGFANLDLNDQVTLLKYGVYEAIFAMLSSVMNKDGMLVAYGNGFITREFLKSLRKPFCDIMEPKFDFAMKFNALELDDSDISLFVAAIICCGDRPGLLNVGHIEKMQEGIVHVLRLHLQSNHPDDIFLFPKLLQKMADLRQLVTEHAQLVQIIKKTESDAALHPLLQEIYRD", "test": "LanthaScreen TR-FRET coactivator recruitment assay, PPARα LBD (PGC1α peptide)", "assay_type": "biochemical", "conditions": "for Emax: read-out: Emax, maximum efficacy, PPARα; for EC50: TR-FRET coactivator recruitment, human PPARα LBD, read-out: EC50, half maximal effective concentration, PPARα"}, "human PPARδ": {"biological_target": "T2, human PPARδ (Homo sapiens, UniProt Q03181)", "T2 construct": "purchased ThermoFisher Scientific PV4685", "T2 sequence (Q03181 211-439 limits assumed)": "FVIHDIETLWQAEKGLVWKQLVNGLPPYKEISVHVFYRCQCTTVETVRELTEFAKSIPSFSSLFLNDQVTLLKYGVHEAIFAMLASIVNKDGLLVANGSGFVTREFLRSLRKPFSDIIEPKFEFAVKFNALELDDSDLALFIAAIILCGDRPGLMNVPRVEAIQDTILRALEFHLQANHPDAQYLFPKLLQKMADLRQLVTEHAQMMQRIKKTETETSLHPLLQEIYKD", "test": "LanthaScreen TR-FRET coactivator recruitment assay, PPARδ LBD (C33 peptide)", "assay_type": "biochemical", "conditions": "for Emax: read-out: Emax, maximum efficacy, PPARδ; for EC50: TR-FRET coactivator recruitment, human PPARδ LBD, read-out: EC50, half maximal effective concentration, PPARδ"}, "PPARγ": {"biological_target": "PPARγ", "design": "method as in PMID 32909075", "conditions": "lowest Kd among nine lipids tested in vitro; cited from earlier work"}, "Angptl4": {"system": "Angptl4", "test": "Angptl4 mRNA expression (qPCR) in 3T3-L1 preadipocytes, without and with PPAR antagonists", "assay_type": "cell-based, murine", "conditions": "agonist and antagonist both 10 μM, 3T3-L1 cells"}, "[1]": {"conditions": "% relative to agonist control GW7647 at the highest concentration, 95% confidence intervals in parentheses"}, "[2]": {"conditions": "95% confidence intervals in parentheses"}, "[3]": {"conditions": "% relative to agonist control GW501516 at the highest concentration, 95% confidence intervals in parentheses"}},
  "note": "Like-named read-outs stand apart in the source and are kept apart here.",
  "data": [
    {"compound": "CCCCCCCCCCCCCCC(=O)O", "note": "[C15, Pentadecanoic acid]", "values": [
      {"measurement": "Emax", "setting": "human PPARα; [1]", "result": 36.8, "unit": "%"},
      {"measurement": "EC50", "setting": "human PPARα; [2]", "result": 9.6, "unit": "µM"},
      {"measurement": "Emax", "setting": "human PPARδ; [3]", "result": 23.7, "unit": "%"},
      {"measurement": "EC50", "setting": "human PPARδ; [2]", "result": 25.6, "unit": "µM"}
    ]},
    {"compound": "CCC/C=C\\CCCCCCCCCC(=O)O", "note": "[C15:1 cis-11, (11Z)-pentadec-11-enoic acid]", "values": [
      {"measurement": "Emax", "setting": "human PPARα; [1]", "result": 26.6, "unit": "%"},
      {"measurement": "EC50", "setting": "human PPARα; [2]", "result": 12.8, "unit": "µM"},
      {"measurement": "Emax", "setting": "human PPARδ; [3]", "result": 18.9, "unit": "%"},
      {"measurement": "EC50", "setting": "human PPARδ; [2]", "result": 25.7, "unit": "µM"}
    ]},
    {"compound": "CCC[C@@H]1C[C@@H]1CCCCCCCCCC(=O)O", "note": "[C15Δ1 cis-11, (11S,12R)-11,12-methylenepentadecanoic acid]", "values": [
      {"measurement": "Emax", "setting": "human PPARα; [1]", "result": 26.3, "unit": "%"},
      {"measurement": "EC50", "setting": "human PPARα; [2]", "result": 14.1, "unit": "µM"},
      {"measurement": "Emax", "setting": "human PPARδ; [3]", "result": 14.9, "unit": "%"},
      {"measurement": "EC50", "setting": "human PPARδ; [2]", "result": 25.6, "unit": "µM"}
    ]},
    {"compound": "CCCCCCCCCCCCCCCC(=O)O", "note": "[C16, Hexadecanoic acid]", "values": [
      {"measurement": "Emax", "setting": "human PPARα; [1]", "result": 52.6, "unit": "%"},
      {"measurement": "EC50", "setting": "human PPARα; [2]", "result": 5.43, "unit": "µM"}
    ]},
    {"compound": "CCCCCC/C=C\\CCCCCCCC(=O)O", "note": "[C16:1 cis-9, (9Z)-hexadec-9-enoic acid]", "values": [
      {"measurement": "Emax", "setting": "human PPARα; [1]", "result": 59.1, "unit": "%"},
      {"measurement": "EC50", "setting": "human PPARα; [2]", "result": 2.13, "unit": "µM"},
      {"measurement": "Emax", "setting": "human PPARδ; [3]", "result": 39.5, "unit": "%"},
      {"measurement": "EC50", "setting": "human PPARδ; [2]", "result": 26.4, "unit": "µM"}
    ]},
    {"compound": "CCCCCC[C@@H]1C[C@@H]1CCCCCCCC(=O)O", "note": "[C16Δ1 cis-9, (9S,10R)-9,10-methylenehexadecanoic acid]", "values": [
      {"measurement": "Emax", "setting": "human PPARα; [1]", "result": 62.3, "unit": "%"},
      {"measurement": "EC50", "setting": "human PPARα; [2]", "result": 12.2, "unit": "µM"},
      {"measurement": "Emax", "setting": "human PPARδ; [3]", "result": 58.1, "unit": "%"},
      {"measurement": "EC50", "setting": "human PPARδ; [2]", "result": 22, "unit": "µM"}
    ]},
    {"compound": "CCCCCCCCCCCCCCCCC(=O)O", "note": "[C17, Heptadecanoic acid]", "values": [
      {"measurement": "Emax", "setting": "human PPARα; [1]", "result": 58.9, "unit": "%"},
      {"measurement": "EC50", "setting": "human PPARα; [2]", "result": 5.04, "unit": "µM"},
      {"measurement": "Emax", "setting": "human PPARδ; [3]", "result": 41.3, "unit": "%"},
      {"measurement": "EC50", "setting": "human PPARδ; [2]", "result": 22.3, "unit": "µM"}
    ]},
    {"compound": "CCC/C=C\\CCCCCCCCCCCC(=O)O", "note": "[C17:1 cis-13, (13Z)-heptadec-13-enoic acid]", "values": [
      {"measurement": "Emax, maximum efficacy, PPARα", "setting": "human PPARα; [1]", "result": "69.86 (43, 96.7) a %"},
      {"measurement": "Emax", "setting": "human PPARα; [1]", "result": 70, "unit": "%"},
      {"measurement": "EC50", "setting": "human PPARα; [2]", "result": 4.7, "unit": "µM"},
      {"measurement": "Emax", "setting": "human PPARδ; [3]", "result": 30.6, "unit": "%"},
      {"measurement": "EC50", "setting": "human PPARδ; [2]", "result": 17.8, "unit": "µM"}
    ]},
    {"compound": "CCC[C@@H]1C[C@@H]1CCCCCCCCCCCC(=O)O", "note": "[C17Δ1 cis-13, (13S,14R)-13,14-methyleneheptadecanoic acid]", "values": [
      {"measurement": "Emax, maximum efficacy, PPARα", "setting": "human PPARα; [1]", "result": "65.01 (52.5, 77.5) a %"},
      {"measurement": "Emax", "setting": "human PPARα; [1]", "result": 65, "unit": "%"},
      {"measurement": "EC50", "setting": "human PPARα; [2]", "result": 4.12, "unit": "µM"},
      {"measurement": "Emax", "setting": "human PPARδ; [3]", "result": 37.1, "unit": "%"},
      {"measurement": "EC50", "setting": "human PPARδ; [2]", "result": 26.8, "unit": "µM"}
    ]},
    {"compound": "CCCCCCCCCCCCCCCCCC(=O)O", "note": "[C18, Octadecanoic acid]", "values": [
      {"measurement": "Emax", "setting": "human PPARα; [1]", "result": 55.9, "unit": "%"},
      {"measurement": "EC50", "setting": "human PPARα; [2]", "result": 6.37, "unit": "µM"}
    ]},
    {"compound": "CCCCCCCC/C=C\\CCCCCCCC(=O)O", "note": "[C18:1 cis-9, (9Z)-octadec-9-enoic acid]", "values": [
      {"measurement": "EC50", "setting": "human PPARα; [2]", "result": 0.91, "unit": "µM"},
      {"measurement": "Emax", "setting": "human PPARα", "result": 52, "unit": "%"},
      {"measurement": "EC50", "setting": "human PPARδ; [2]", "result": 18.5, "unit": "µM"},
      {"measurement": "Emax", "setting": "human PPARδ", "result": 51.9, "unit": "%"}
    ]},
    {"compound": "CCCCCC/C=C\\CCCCCCCCCC(=O)O", "note": "[C18:1 cis-11, (11Z)-octadec-11-enoic acid]", "values": [
      {"measurement": "Emax", "setting": "human PPARα; [1]", "result": 45.2, "unit": "%"},
      {"measurement": "EC50", "setting": "human PPARα; [2]", "result": 3.5, "unit": "µM"},
      {"measurement": "Emax", "setting": "human PPARδ; [3]", "result": 43.5, "unit": "%"},
      {"measurement": "EC50", "setting": "human PPARδ; [2]", "result": 22, "unit": "µM"}
    ]},
    {"compound": "CCCCCCCC[C@@H]1C[C@@H]1CCCCCCCC(=O)O", "note": "[C18Δ1 cis-9, (9S,10R)-9,10-methyleneoctadecanoic acid]", "values": [
      {"measurement": "Emax", "setting": "human PPARα; [1]", "result": 51.4, "unit": "%"},
      {"measurement": "EC50", "setting": "human PPARα; [2]", "result": 5.23, "unit": "µM"},
      {"measurement": "Emax, maximum efficacy, PPARδ", "setting": "human PPARδ; [3]", "result": "73.56 (65.9, 81.2) b %"},
      {"measurement": "Emax", "setting": "human PPARδ; [3]", "result": "~74", "unit": "%"},
      {"measurement": "EC50", "setting": "human PPARδ; [2]", "result": 27.1, "unit": "µM"}
    ]},
    {"compound": "CCCCCC[C@@H]1C[C@@H]1CCCCCCCCCC(=O)O", "note": "[C18Δ1 cis-11, (11S,12R)-11,12-methyleneoctadecanoic acid]", "values": [
      {"measurement": "Emax", "setting": "human PPARα; [1]", "result": 54.7, "unit": "%"},
      {"measurement": "EC50", "setting": "human PPARα; [2]", "result": 7.65, "unit": "µM"},
      {"measurement": "Emax, maximum efficacy, PPARδ", "setting": "human PPARδ; [3]", "result": "57.03 (52.5, 61.6) a %"},
      {"measurement": "Emax", "setting": "human PPARδ; [3]", "result": 57, "unit": "%"},
      {"measurement": "EC50", "setting": "human PPARδ; [2]", "result": 25.8, "unit": "µM"},
      {"measurement": "Kd", "setting": "PPARγ", "result": "~100", "unit": "µM"}
    ]},
    {"compound": "O=C(NCCS(=O)(=O)c1ccc(C(F)(F)F)cn1)c1ccc(Cl)cc1", "note": "[GSK3787]", "values": [
      {"measurement": "Reduction of PPAR agonist-mediated Angptl4 expression by the antagonist", "setting": "Angptl4", "result": "~50", "unit": "%"}
    ]},
    {"compound": "CCC(=O)NC[C@H](Cc1ccc(OCCc2nc(-c3ccccc3)oc2C)cc1)N/C(C)=C\\C(=O)c1ccc(C(F)(F)F)cc1", "note": "[GW6471]", "values": [
      {"measurement": "Reduction of PPAR agonist-mediated Angptl4 expression by the antagonist", "setting": "Angptl4", "result": "did not inhibit"}
    ]},
    {"compound": "CC(C)(Sc1ccc(CCN(CCCCC2CCCCC2)C(=O)NC2CCCCC2)cc1)C(=O)O", "note": "[GW7647]", "values": [
      {"measurement": "Emax", "setting": "human PPARα; [1]", "result": 86.6, "unit": "%"}
    ]},
    {"compound": "O=C(Nc1ccncc1)c1cc([N+](=O)[O-])ccc1Cl", "note": "[T0070907]", "values": [
      {"measurement": "Reduction of PPAR agonist-mediated Angptl4 expression by the antagonist", "setting": "Angptl4", "result": "~50", "unit": "%"}
    ]}
  ]
}
